Test results taken from ChEMBL document CHEMBL4507320, “Data for DCP probe NVS-MALT1” (2021).

Legend:
[1] = target: RAC-alpha serine/threonine-protein kinase (Homo sapiens) (UniProt P31749); conditions: Compound concentration 1000.0 nM
[2] = target: RAC-gamma serine/threonine-protein kinase (Homo sapiens) (UniProt Q9Y243); conditions: Compound concentration 1000.0 nM
[3] = target: 5'-AMP-activated protein kinase catalytic subunit alpha-1 (Homo sapiens) (UniProt Q13131); conditions: Compound concentration 1000.0 nM
[4] = target: Calcium/calmodulin-dependent protein kinase type II subunit alpha (Homo sapiens) (UniProt Q9UQM7); conditions: Compound concentration 1000.0 nM
[5] = target: Calcium/calmodulin-dependent protein kinase kinase 1 (Homo sapiens) (UniProt Q8N5S9); conditions: Compound concentration 1000.0 nM
[6] = target: Calcium/calmodulin-dependent protein kinase kinase 2 (Homo sapiens) (UniProt Q96RR4); conditions: Compound concentration 1000.0 nM
[7] = target: Peripheral plasma membrane protein CASK (Homo sapiens) (UniProt O14936); conditions: Compound concentration 1000.0 nM
[8] = target: Cyclin-dependent kinase 7 (Homo sapiens) (UniProt P50613); conditions: Compound concentration 1000.0 nM
Sequence of Cyclin-dependent kinase 7 (Homo sapiens) (P50613 whole entry): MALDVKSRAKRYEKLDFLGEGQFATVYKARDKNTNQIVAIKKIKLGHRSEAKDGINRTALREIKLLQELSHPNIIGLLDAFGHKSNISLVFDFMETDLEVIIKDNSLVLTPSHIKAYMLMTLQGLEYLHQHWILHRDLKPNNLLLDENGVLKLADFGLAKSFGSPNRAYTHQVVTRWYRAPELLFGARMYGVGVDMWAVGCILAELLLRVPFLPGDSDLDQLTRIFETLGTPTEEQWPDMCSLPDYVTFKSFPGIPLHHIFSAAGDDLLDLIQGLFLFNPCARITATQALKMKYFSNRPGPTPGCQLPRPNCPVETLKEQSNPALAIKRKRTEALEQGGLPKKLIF

[9] = target: Cyclin-dependent kinase-like 3 (Homo sapiens) (UniProt Q8IVW4); conditions: Compound concentration 1000.0 nM
Sequence of Cyclin-dependent kinase-like 3 (Homo sapiens) (Q8IVW4 whole entry, looked up): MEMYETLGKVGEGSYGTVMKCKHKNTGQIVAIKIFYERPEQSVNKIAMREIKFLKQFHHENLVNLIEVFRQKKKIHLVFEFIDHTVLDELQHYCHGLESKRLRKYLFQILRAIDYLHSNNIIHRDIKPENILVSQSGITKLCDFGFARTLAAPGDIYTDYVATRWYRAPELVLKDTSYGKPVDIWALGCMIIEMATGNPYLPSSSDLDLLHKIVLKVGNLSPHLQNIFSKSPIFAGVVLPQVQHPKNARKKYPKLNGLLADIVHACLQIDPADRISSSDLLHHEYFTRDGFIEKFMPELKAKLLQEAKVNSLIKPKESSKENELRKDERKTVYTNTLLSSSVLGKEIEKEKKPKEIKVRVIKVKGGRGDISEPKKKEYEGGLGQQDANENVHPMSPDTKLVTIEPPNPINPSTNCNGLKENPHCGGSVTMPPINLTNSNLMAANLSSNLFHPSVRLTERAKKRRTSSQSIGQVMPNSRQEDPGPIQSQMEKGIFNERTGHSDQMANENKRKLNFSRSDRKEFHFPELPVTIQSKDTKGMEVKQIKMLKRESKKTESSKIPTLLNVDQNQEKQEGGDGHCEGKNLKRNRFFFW

[10] = target: Serine/threonine-protein kinase Chk2 (Homo sapiens) (UniProt O96017); conditions: Compound concentration 1000.0 nM
Sequence of Serine/threonine-protein kinase Chk2 (Homo sapiens) (O96017 whole entry): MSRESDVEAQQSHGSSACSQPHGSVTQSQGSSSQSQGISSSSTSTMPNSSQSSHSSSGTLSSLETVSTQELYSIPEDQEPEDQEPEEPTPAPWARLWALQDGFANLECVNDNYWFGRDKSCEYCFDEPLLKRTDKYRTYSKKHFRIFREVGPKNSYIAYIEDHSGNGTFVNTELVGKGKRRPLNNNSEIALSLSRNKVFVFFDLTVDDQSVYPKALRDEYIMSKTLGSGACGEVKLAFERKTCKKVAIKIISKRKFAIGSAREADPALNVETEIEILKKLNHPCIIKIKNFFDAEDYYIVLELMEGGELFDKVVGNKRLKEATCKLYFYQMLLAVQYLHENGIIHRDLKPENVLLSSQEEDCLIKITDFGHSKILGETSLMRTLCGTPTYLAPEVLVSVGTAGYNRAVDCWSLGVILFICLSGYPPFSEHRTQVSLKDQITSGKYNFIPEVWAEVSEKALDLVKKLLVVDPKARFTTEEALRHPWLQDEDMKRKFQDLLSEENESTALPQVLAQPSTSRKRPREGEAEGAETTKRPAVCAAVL

[11] = target: Dual specificity protein kinase CLK2 (Homo sapiens) (UniProt P49760); conditions: Compound concentration 1000.0 nM
[12] = target: Dual specificity protein kinase CLK3 (Homo sapiens) (UniProt P49761); conditions: Compound concentration 1000.0 nM
[13] = target: Dual specificity protein kinase CLK4 (Homo sapiens) (UniProt Q9HAZ1); conditions: Compound concentration 1000.0 nM
[14] = target: Casein kinase I isoform alpha (Homo sapiens) (UniProt P48729); conditions: Compound concentration 1000.0 nM
Sequence of Casein kinase I isoform alpha (Homo sapiens) (P48729 2-337 limits assumed): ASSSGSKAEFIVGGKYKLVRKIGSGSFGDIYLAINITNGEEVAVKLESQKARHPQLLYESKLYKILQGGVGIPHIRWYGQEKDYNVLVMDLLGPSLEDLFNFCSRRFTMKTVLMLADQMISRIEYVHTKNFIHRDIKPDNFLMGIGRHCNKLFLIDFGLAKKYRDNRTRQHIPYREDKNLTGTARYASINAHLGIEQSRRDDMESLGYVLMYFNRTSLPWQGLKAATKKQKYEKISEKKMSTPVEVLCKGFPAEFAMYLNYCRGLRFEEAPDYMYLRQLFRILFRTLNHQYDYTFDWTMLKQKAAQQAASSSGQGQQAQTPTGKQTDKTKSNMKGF

[15] = system: Epidermal growth factor receptor (Homo sapiens), P00533 [L861Q]; conditions: Compound concentration 1000.0 nM
[16] = target: Ephrin type-A receptor 4 (Homo sapiens) (UniProt P54764); conditions: Compound concentration 1000.0 nM
[17] = system: Receptor-type tyrosine-protein kinase FLT3 (Homo sapiens), P36888 [R834Q]; conditions: Compound concentration 1000.0 nM
[18] = target: Cyclin-G-associated kinase (Homo sapiens) (UniProt O14976); conditions: Compound concentration 1000.0 nM
[19] = target: Rhodopsin kinase GRK7 (Homo sapiens) (UniProt Q8WTQ7); conditions: Compound concentration 1000.0 nM
Sequence of Rhodopsin kinase GRK7 (Homo sapiens) (Q8WTQ7 whole entry): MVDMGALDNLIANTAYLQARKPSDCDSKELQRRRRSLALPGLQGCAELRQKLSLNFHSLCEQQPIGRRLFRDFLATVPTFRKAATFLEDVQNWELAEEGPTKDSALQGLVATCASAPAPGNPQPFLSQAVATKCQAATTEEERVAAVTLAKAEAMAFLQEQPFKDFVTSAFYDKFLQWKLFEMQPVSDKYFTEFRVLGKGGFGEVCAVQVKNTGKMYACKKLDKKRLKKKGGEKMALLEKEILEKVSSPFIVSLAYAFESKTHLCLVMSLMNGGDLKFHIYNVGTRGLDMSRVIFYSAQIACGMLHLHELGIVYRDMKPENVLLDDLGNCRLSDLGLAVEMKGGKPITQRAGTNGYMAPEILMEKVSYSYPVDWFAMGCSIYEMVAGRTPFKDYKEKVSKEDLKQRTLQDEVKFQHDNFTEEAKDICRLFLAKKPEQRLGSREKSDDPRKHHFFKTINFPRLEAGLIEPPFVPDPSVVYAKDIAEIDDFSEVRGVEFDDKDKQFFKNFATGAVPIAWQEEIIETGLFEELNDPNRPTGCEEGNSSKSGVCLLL

[20] = target: Tyrosine-protein kinase JAK1 (Homo sapiens) (UniProt P23458); conditions: Compound concentration 1000.0 nM
[21] = system: Mast/stem cell growth factor receptor Kit (Homo sapiens), P10721 [V559D,V654A]; conditions: Compound concentration 1000.0 nM
[22] = target: Tyrosine-protein kinase Lyn (Homo sapiens) (UniProt P07948); conditions: Compound concentration 1000.0 nM
[23] = target: MAP/microtubule affinity-regulating kinase 4 (Homo sapiens) (UniProt Q96L34); conditions: Compound concentration 1000.0 nM
Sequence of MAP/microtubule affinity-regulating kinase 4 (Homo sapiens) (Q96L34 whole entry): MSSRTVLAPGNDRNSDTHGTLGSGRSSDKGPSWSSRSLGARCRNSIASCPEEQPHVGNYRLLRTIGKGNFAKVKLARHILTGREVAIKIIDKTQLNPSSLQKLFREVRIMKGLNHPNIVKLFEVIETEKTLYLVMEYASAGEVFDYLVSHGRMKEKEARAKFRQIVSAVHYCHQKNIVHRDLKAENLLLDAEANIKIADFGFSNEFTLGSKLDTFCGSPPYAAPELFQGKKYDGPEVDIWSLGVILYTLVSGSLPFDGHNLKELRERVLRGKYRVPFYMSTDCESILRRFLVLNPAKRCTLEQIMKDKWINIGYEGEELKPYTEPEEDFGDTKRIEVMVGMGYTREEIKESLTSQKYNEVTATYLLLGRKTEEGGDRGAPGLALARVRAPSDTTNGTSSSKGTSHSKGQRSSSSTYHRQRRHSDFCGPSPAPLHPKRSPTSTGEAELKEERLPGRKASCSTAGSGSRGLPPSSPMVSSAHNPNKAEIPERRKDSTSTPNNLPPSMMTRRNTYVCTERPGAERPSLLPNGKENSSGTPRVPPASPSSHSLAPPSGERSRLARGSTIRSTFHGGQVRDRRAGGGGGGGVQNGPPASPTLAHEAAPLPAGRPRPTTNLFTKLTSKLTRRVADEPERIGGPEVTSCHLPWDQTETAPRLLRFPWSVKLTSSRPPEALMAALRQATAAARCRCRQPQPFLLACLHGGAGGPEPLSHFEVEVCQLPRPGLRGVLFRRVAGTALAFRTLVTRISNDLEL

[24] = target: Dual specificity mitogen-activated protein kinase kinase 3 (Homo sapiens) (UniProt P46734); conditions: Compound concentration 1000.0 nM
Sequence of Dual specificity mitogen-activated protein kinase kinase 3 (Homo sapiens) (P46734 whole entry): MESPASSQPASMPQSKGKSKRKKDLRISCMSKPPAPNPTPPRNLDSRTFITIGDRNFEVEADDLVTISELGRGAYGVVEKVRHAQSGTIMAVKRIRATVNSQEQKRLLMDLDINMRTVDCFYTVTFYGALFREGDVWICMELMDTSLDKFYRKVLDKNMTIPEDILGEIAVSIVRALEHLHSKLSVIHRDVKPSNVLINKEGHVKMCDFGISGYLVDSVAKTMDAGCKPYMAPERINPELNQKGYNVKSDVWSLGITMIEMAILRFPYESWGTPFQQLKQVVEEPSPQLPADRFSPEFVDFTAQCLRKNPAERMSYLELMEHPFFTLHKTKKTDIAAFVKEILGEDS

[25] = target: Misshapen-like kinase 1 (Homo sapiens) (UniProt Q8N4C8); conditions: Compound concentration 1000.0 nM
[26] = target: Serine/threonine-protein kinase 26 (Homo sapiens) (UniProt Q9P289); conditions: Compound concentration 1000.0 nM
[27] = target: Myosin light chain kinase family member 4 (Homo sapiens) (UniProt Q86YV6); conditions: Compound concentration 1000.0 nM
[28] = target: Serine/threonine-protein kinase Nek5 (Homo sapiens) (UniProt Q6P3R8); conditions: Compound concentration 1000.0 nM
[29] = target: 3-phosphoinositide-dependent protein kinase 1 (Homo sapiens) (UniProt O15530); conditions: Compound concentration 1000.0 nM
[30] = system: Phosphatidylinositol 4,5-bisphosphate 3-kinase catalytic subunit alpha isoform (Homo sapiens), P42336 [Q546K]; conditions: Compound concentration 1000.0 nM
[31] = target: Phosphatidylinositol 4,5-bisphosphate 3-kinase catalytic subunit delta isoform (Homo sapiens) (UniProt O00329); conditions: Compound concentration 1000.0 nM
[32] = target: Serine/threonine-protein kinase pim-1 (Homo sapiens) (UniProt P11309); conditions: Compound concentration 1000.0 nM
Sequence of Serine/threonine-protein kinase pim-1 (Homo sapiens) (P11309 whole entry, looked up): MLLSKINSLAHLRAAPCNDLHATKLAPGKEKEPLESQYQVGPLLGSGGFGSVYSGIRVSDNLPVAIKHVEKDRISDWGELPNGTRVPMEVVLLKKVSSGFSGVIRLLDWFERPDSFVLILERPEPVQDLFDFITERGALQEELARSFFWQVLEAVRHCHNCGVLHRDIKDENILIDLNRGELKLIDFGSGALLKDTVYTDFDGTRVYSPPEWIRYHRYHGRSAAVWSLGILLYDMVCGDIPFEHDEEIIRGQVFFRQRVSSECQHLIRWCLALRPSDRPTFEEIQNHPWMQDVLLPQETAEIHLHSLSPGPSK

[33] = target: Phosphatidylinositol 5-phosphate 4-kinase type-2 beta (Homo sapiens) (UniProt P78356); conditions: Compound concentration 1000.0 nM
[34] = target: Serine/threonine-protein kinase PLK2 (Homo sapiens) (UniProt Q9NYY3); conditions: Compound concentration 1000.0 nM
[35] = target: Protein kinase C theta type (Homo sapiens) (UniProt Q04759); conditions: Compound concentration 1000.0 nM
[36] = target: Receptor-interacting serine/threonine-protein kinase 1 (Homo sapiens) (UniProt Q13546); conditions: Compound concentration 1000.0 nM
Sequence of Receptor-interacting serine/threonine-protein kinase 1 (Homo sapiens) (Q13546 whole entry): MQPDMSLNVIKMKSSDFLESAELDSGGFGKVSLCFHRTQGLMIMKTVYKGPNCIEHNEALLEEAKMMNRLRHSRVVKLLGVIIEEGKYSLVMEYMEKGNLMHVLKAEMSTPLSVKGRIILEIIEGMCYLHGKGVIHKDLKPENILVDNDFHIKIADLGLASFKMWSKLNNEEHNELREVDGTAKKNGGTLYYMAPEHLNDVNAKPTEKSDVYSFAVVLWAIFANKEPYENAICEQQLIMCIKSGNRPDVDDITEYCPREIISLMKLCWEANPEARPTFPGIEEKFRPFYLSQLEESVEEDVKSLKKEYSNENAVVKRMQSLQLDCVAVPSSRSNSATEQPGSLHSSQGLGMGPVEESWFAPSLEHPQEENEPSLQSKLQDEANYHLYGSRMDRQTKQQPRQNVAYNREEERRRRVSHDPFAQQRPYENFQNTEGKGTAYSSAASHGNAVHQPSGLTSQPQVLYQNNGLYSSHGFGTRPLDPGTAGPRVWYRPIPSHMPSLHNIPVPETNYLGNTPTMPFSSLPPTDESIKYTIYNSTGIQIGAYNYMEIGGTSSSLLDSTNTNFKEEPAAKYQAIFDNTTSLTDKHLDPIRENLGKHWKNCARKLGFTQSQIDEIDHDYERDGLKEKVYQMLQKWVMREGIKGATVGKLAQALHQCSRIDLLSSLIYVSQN

[37] = target: Ribosomal protein S6 kinase alpha-2 (Homo sapiens) (UniProt Q15349); conditions: Compound concentration 1000.0 nM
[38] = target: SNF-related serine/threonine-protein kinase (Homo sapiens) (UniProt Q9NRH2); conditions: Compound concentration 1000.0 nM
[39] = target: Serine/threonine-protein kinase 33 (Homo sapiens) (UniProt Q9BYT3); conditions: Compound concentration 1000.0 nM
[40] = target: Mitogen-activated protein kinase kinase kinase 7 (Homo sapiens) (UniProt O43318); conditions: Compound concentration 1000.0 nM
[41] = target: NT-3 growth factor receptor (Homo sapiens) (UniProt Q16288); conditions: Compound concentration 1000.0 nM
[42] = target: Serine/threonine-protein kinase 32A (Homo sapiens) (UniProt Q8WU08); conditions: Compound concentration 1000.0 nM
[43] = target: Mu-type opioid receptor (Homo sapiens) (UniProt P35372); conditions: Compound concentration 10.0 uM
[44] = target: Alpha-1B adrenergic receptor (Homo sapiens) (UniProt P35368); conditions: Compound concentration 10.0 uM
[45] = target: Muscarinic acetylcholine receptor M3 (Homo sapiens) (UniProt P20309); conditions: Compound concentration 10.0 uM

Sequence of RAC-gamma serine/threonine-protein kinase (Homo sapiens) (Q9Y243 whole entry): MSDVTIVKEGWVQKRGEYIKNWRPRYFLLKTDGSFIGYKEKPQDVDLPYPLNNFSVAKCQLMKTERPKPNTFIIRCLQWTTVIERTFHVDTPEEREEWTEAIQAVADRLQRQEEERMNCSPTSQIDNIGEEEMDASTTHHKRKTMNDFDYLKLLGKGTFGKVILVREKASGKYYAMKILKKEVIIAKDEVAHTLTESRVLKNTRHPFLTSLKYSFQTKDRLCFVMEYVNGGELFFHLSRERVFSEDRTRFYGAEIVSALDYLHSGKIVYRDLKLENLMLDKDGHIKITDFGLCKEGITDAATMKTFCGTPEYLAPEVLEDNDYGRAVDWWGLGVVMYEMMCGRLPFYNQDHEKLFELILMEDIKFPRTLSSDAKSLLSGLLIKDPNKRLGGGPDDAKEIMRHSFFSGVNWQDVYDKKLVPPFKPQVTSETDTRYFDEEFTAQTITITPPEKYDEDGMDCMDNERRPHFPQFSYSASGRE

CO[C@@H](C)c1c(Nc2ccc([C@@H](N(C)C(=O)C3CCS(=O)(=O)CC3)C(F)(F)F)cc2)cnc2cc(Cl)nn12 [NVS-MALT1-C]
inactive: residual activity [1] 89% | residual activity [2] 65% | residual activity [3] 92% | residual activity [4] 83% | residual activity [5] 98% | residual activity [6] 100% | residual activity [7] 100% | residual activity [8] 100% | residual activity [9] 73% | residual activity [10] 100% | residual activity [11] 100% | residual activity [12] 87% | residual activity [13] 92% | residual activity [14] 72% | residual activity [15] 100% | residual activity [16] 100% | residual activity [17] 100% | residual activity [18] 93% | residual activity [19] 100% | residual activity [20] 89% | residual activity [21] 88% | residual activity [22] 97% | residual activity [23] 89% | residual activity [24] 90% | residual activity [25] 100% | residual activity [26] 100% | residual activity [27] 83% | residual activity [28] 88% | residual activity [29] 97% | residual activity [30] 100% | residual activity [31] 87% | residual activity [32] 100% | residual activity [33] 100% | residual activity [34] 100% | residual activity [35] 98% | residual activity [36] 84% | residual activity [37] 100% | residual activity [38] 100% | residual activity [39] 51% | residual activity [40] 84% | residual activity [41] 100% | residual activity [42] 100% | inhibition [43] 6.39% | inhibition [44] 5.97% | inhibition [45] -2.58%

CO[C@@H](C)c1c(Nc2ccc([C@H](N(C)C(=O)C3CCS(=O)(=O)CC3)C(F)(F)F)cc2)cnc2cc(Cl)nn12 [NVS-MALT1]
inactive: residual activity [1] 100% | residual activity [2] 100% | residual activity [3] 99% | residual activity [4] 83% | residual activity [5] 80% | residual activity [6] 80% | residual activity [7] 100% | residual activity [8] 100% | residual activity [9] 73% | residual activity [10] 90% | residual activity [11] 100% | residual activity [12] 87% | residual activity [13] 94% | residual activity [14] 51% | residual activity [15] 100% | residual activity [16] 83% | residual activity [17] 100% | residual activity [18] 98% | residual activity [19] 100% | residual activity [20] 100% | residual activity [21] 92% | residual activity [22] 77% | residual activity [23] 76% | residual activity [24] 93% | residual activity [25] 100% | residual activity [26] 100% | residual activity [27] 86% | residual activity [28] 84% | residual activity [29] 100% | residual activity [30] 100% | residual activity [31] 98% | residual activity [32] 88% | residual activity [33] 100% | residual activity [34] 100% | residual activity [35] 93% | residual activity [36] 91% | residual activity [37] 100% | residual activity [38] 100% | residual activity [39] 51% | residual activity [40] 89% | residual activity [41] 100% | residual activity [42] 100% | inhibition [43] 6.13% | inhibition [44] 27.6% | inhibition [45] -8.44%
